Patent US12582616B2, “Molecular targets for modulation of dissociative and associative states” (The Board of Trustees of the Leland Stanford Junior …, priority 2020, dated 2026)

Tests used:
humans = conditions: human; cited from earlier work
[1] = system: retrosplenial cortex (RSP); assay: Two-photon imaging of retrosplenial cortex; assay type: in vivo, mouse
Procedure: Mice were anesthetized with isoflurane and the skull above retrosplenial cortex was removed and replaced with a 7 mm circular glass coverslip. For layer 1 experiments, Thy1GcaMP6s mice were used. For layer 2/3 experiments, Cux2-CreER; Ai148 mice were used (tamoxifen dissolved in corn oil was injected intraperitoneally at 0.1 mg/g at least 2 weeks prior to imaging). For layer 5 experiments, Rbp4-Cre mice were injected locally in retrosplenial with 800 nL AAVdj-Ef1a-DIO-GCaMP6f (titer 5E12) at stereotactic coordinates (−3AP, 0.5ML, −0.6DV). Mice were given >=1 week to recover before imaging. Awake, head-fixed imaging was performed on a standard two photon microscope (NeuroLabWare, Los Angeles, CA). A 16x 0.8 NA Nikon objective was immersed in clear ultrasound gel for imaging (Aquasonic, Parker Laboratories); frame rate of 30 Hz. Although we observed oscillations in RSP with 50 mg/kg, we were concerned that 50 mg/kg may be too low a dose to sensitively detect a potentially weaker signal in visual cortex or layer 2/3, and so we used 80 mg/kg in these experiments.
Two-photon tiff stack videos were registered to the average image using the TurboReg ImageJ plug-in using rigid body transformations. […] Contaminating neuropil signal was estimated from an annulus surrounding each soma mask and removed using the function F(t)=Fsoma(t)-0.3*Fneuropil(t), where Fsoma(t) is the somatic DF/F and Fneuropil(t) is the DF/F from an annulus 4 pixels wide surrounding each soma mask. The resulting traces were detrended and z-scored. The full frame fluorescence (used for quantifying layer 1 neuropil oscillations) was computed by summing all of the pixels in each frame on each time point, and then computing DF/F the same way, with no neuropil subtraction step.
Each trace (corresponding to either a fiber photometry signal, a cellular two-photon signal, a widefield regional centroid, a widefield pixel, an sEEG trace, or a smoothed spike rate Neuropixels trace) was z-scored, and the power spectral density (PSD) was then estimated using Welch's method (pwelch( ) in Matlab), with a window size of 10*fs (15*fs for human sEEG) where fs is the sampling rate of the signal. The average band power within a specified band (i.e. 1-3 Hz) was then computed by integrating the PSD estimate (bandpower in Matlab). For displaying the traces of individual cells, traces were each zscored by subtracting the mean value of the trace (across the whole recorded time window) and dividing by the standard deviation of the trace. Unless otherwise indicated, the PSD was computed across the time window from minutes 10 to 11 post-injection.

mouse = conditions: cited from earlier work

CNC1(c2ccccc2Cl)CCCCC1=O (stereo not shown) [ketamine]
dose at which humans consistently report potent dissociation (humans): 2 to 3 mg/kg
typical dose for anti-depressant effects (humans): 0.3 to 1 mg/kg
oscillation and population synchrony in layer 2/3 RSP neurons ([1]; Cux2-CreER mice, after ketamine): neither oscillating neurons nor population synchrony were observed
synchronous activity in layer 5 RSP neurons ([1]; Rbp4-Cre mice, after ketamine): exhibited synchronous activity
spread of ketamine-rhythm across layers and regions ([1]; Supplementary Note 2): did not spread beyond layer 5 neurons in retrosplenial cortex
oscillation in superficial neuropil, RSP vs neighboring visual cortex ([1]; two-photon, cranial window, 80 mg/kg): observed the oscillation in RSP but not neighboring visual cortex
typical dose for anti-depressant effects (mouse): 3 to 10 mg/kg
